# Counter-ions that a name gives are not always drawn. Like-named read-outs stand apart in the source and are kept apart here.
# Assay: Phase 1a single ascending dose study: UV-4 plasma concentrations and PK parameters (LC-MS/MS, noncompartmental)
# Type: in vivo
# Details: for Tmax: median; for AUC(0-t): read-out: AUC(0-8); for Vd/F: read-out: Vz/F
# Description: UV-4 ((2R,3R,4R,5S)-2-(hydroxymethyl)-1-(9-methoxynonyl)piperidine-3,4,5-triol, also called N-(9’-methoxynonyl)-1-deoxynojirimycin, or MON-DNJ) hydrochloride was evaluated in a first-in-human, randomized, single-center, double-blind, placebo-controlled, parallel group, single ascending dose Phase 1a clinical trial in healthy subjects (Figs 1 and 2, ClinicalTrials.gov Identifier NCT02061358 https://clinicaltrials.gov/ct2/show/NCT02061358). The primary objective was to determine the safety and tolerability of a single-ascending oral dose of UV-4 hydrochloride (Fig 3). […] The secondary objective was to determine PK parameters describing absorption and elimination of UV-4 following a single oral dose of UV-4 hydrochloride. Eight cohorts of eight subjects each were enrolled and completed the study. In each cohort, six subjects received UV-4 as the hydrochloride; two received placebo. Subjects were screened against study eligibility criteria up to four weeks (Days -28 to -2) before admission to the clinic (Day -1). Dosing was performed on an inpatient basis. Subjects remained in clinic for 48 hours post-dosing for PK sample collection and safety assessments and were discharged from the clinic on Day 3. Subjects returned to the clinic on Day 4 for additional safety assessments, then again on Day 9 ± 1 for a final follow-up visit.
# Eligible subjects were healthy males and females, age 18–45 years, with a body mass index between 18 and 30 kg/m^2 inclusive and a minimum body weight of 60 kg. Subjects were considered healthy based on medical history, physical exam, vital signs, 12-lead electrocardiogram (ECG), clinical laboratory tests (hematology, blood chemistry, urinalysis), viral serology, and drug and alcohol screening. Male and female subjects of childbearing potential were required to use adequate contraception over the course of the clinical trial. […] Only subjects who met all inclusion and none of the exclusion criteria prior to administration of the investigational product were enrolled into the study (no exemptions were granted). A total of 64 subjects were enrolled (eight cohorts of eight subjects each). In each of the eight cohorts, six subjects were randomized to receive a single dose of UV-4 (3 to 1000 mg, depending on cohort) as the hydrochloride salt, and two subjects to receive placebo. Cohort size of six active subjects was based on analysis that increasing cohort size above six in a first-in-human study gains little in the ability to observe a drug induced event, and results in observing more events that are not related to study drug. Two of the eight subjects in each cohort (sentinel subjects; one active and one placebo) received their doses at least 48 h before the remaining subjects in each cohort.
# On each day of use, bulk drug substance (UV-4B for solubilization, SAI Life Sciences Ltd. Telangana, India) was removed from a single-use container, weighed at the study center, and solubilized in 20 mL sterile water for injection (SWFI) (Hospira Inc. Illinois, United States of America). Weight of solid drug substance was converted to dose of UV-4 by applying purity and salt correction factor per pharmacy manual when preparing the dosing solution. UV-4B solution was administered orally with 10 mL of taste-masking agent, OraSweet-SF (Paddock Laboratories LLC, Minneapolis, United States of America) in a total volume of 30 mL, to assist in maintaining study blinding. Placebo was SWFI (20 mL) plus OraSweet-SF (10 mL). Concentrations and doses were calculated and expressed as the active free base form, UV-4. This methodology is consistent with USP<1121>, which recommends that the strength of a drug product or preparation is expressed in terms of the active moiety. Following consumption of active or placebo solution, the dosing container was rinsed with 50 mL of tap water also consumed by subjects. […]
# [1] = 3 mg single oral dose, Geo Mean
# [2] = 10 mg single oral dose, Ar Mean
# [3] = 10 mg single oral dose, Geo Mean
# [4] = 30 mg single oral dose, Ar Mean
# [5] = 30 mg single oral dose, Geo Mean
# [6] = 90 mg single oral dose, Ar Mean
# [7] = 90 mg single oral dose, Geo Mean
# [8] = 180 mg single oral dose, Ar Mean
# [9] = 180 mg single oral dose, Geo Mean
# [10] = 360 mg single oral dose, Ar Mean
# [11] = 360 mg single oral dose, Geo Mean
# [12] = 720 mg single oral dose, Ar Mean
# [13] = 720 mg single oral dose, Geo Mean
# [14] = 1000 mg single oral dose, Ar Mean
# [15] = 1000 mg single oral dose, Geo Mean
# [16] = both sexes, human, plasma, po, 3 mg, 3 mg single oral dose, Ar Mean
# [17] = both sexes, human, plasma, po, 3 mg, 3 mg single oral dose, Geo Mean
# [18] = both sexes, human, plasma, po, 10 mg, 10 mg single oral dose, Ar Mean
# [19] = both sexes, human, plasma, po, 10 mg, 10 mg single oral dose, Geo Mean
# [20] = both sexes, human, plasma, po, 30 mg, 30 mg single oral dose, Ar Mean
# [21] = both sexes, human, plasma, po, 30 mg, 30 mg single oral dose, Geo Mean
# [22] = both sexes, human, plasma, po, 90 mg, 90 mg single oral dose, Ar Mean
# [23] = both sexes, human, plasma, po, 90 mg, 90 mg single oral dose, Geo Mean
# [24] = both sexes, human, plasma, po, 180 mg, 180 mg single oral dose, Ar Mean
# [25] = both sexes, human, plasma, po, 180 mg, 180 mg single oral dose, Geo Mean
# [26] = both sexes, human, plasma, po, 360 mg, 360 mg single oral dose, Ar Mean
# [27] = both sexes, human, plasma, po, 360 mg, 360 mg single oral dose, Geo Mean
# [28] = both sexes, human, plasma, po, 720 mg, 720 mg single oral dose, Ar Mean
# [29] = both sexes, human, plasma, po, 720 mg, 720 mg single oral dose, Geo Mean
# [30] = both sexes, human, plasma, po, 1000 mg, 1000 mg single oral dose, Ar Mean
# [31] = both sexes, human, plasma, po, 1000 mg, 1000 mg single oral dose, Geo Mean
compound,measurement,setting,value
"COCCCCCCCCCN1C[C@H](O)[C@@H](O)[C@H](O)[C@H]1CO [UV-4B, N-(9’-methoxynonyl)-1-deoxynojirimycin hydrochloride]",AUC(0-inf),"3 mg single oral dose, Ar Mean",95.6 ng·h/mL
same,CL/F,"3 mg single oral dose, Ar Mean",32.1 L/h
same,Cmax,"3 mg single oral dose, Ar Mean",22.4 ng/mL
same,DNAUC(0-inf),"3 mg single oral dose, Ar Mean",31.9 ng·h/mL/mg
same,DNCmax,"3 mg single oral dose, Ar Mean",7.45 ng/mL/mg
same,t1/2,"3 mg single oral dose, Ar Mean",10.7 h
same,CL/F,[1],31.7 L/h
same,Cmax,[1],22.1 ng/mL
same,DNAUC(0-inf),[1],31.5 ng·h/mL/mg
same,DNCmax,[1],7.38 ng/mL/mg
same,t1/2,[1],10.3 h
same,Tmax,3 mg single oral dose,0.50 h
same,CL/F,[2],24.3 L/h
same,Cmax,[2],84.6 ng/mL
same,DNAUC(0-inf),[2],43.1 ng·h/mL/mg
same,DNCmax,[2],8.46 ng/mL/mg
same,t1/2,[2],12.0 h
same,CL/F,[3],23.8 L/h
same,Cmax,[3],82.6 ng/mL
same,DNAUC(0-inf),[3],42.0 ng·h/mL/mg
same,DNCmax,[3],8.26 ng/mL/mg
same,t1/2,[3],11.9 h
same,Tmax,10 mg single oral dose,1.00 h
same,CL/F,[4],24.0 L/h
same,Cmax,[4],293 ng/mL
same,DNAUC(0-inf),[4],42.0 ng·h/mL/mg
same,DNCmax,[4],9.76 ng/mL/mg
same,t1/2,[4],10.0 h
same,CL/F,[5],23.9 L/h
same,Cmax,[5],289 ng/mL
same,DNAUC(0-inf),[5],41.8 ng·h/mL/mg
same,DNCmax,[5],9.64 ng/mL/mg
same,t1/2,[5],9.98 h
same,Tmax,30 mg single oral dose,0.50 h
same,CL/F,[6],24.5 L/h
same,Cmax,[6],946 ng/mL
same,DNAUC(0-inf),[6],41.4 ng·h/mL/mg
same,DNCmax,[6],10.5 ng/mL/mg
same,t1/2,[6],10.4 h
same,CL/F,[7],24.3 L/h
same,Cmax,[7],900 ng/mL
same,DNAUC(0-inf),[7],41.1 ng·h/mL/mg
same,DNCmax,[7],10.0 ng/mL/mg
same,t1/2,[7],10.2 h
same,Tmax,90 mg single oral dose,0.50 h
same,CL/F,[8],25.4 L/h
same,Cmax,[8],2150 ng/mL
same,DNAUC(0-inf),[8],39.5 ng·h/mL/mg
same,DNCmax,[8],12.0 ng/mL/mg
same,t1/2,[8],8.71 h
same,CL/F,[9],25.4 L/h
same,Cmax,[9],2060 ng/mL
same,DNAUC(0-inf),[9],39.4 ng·h/mL/mg
same,DNCmax,[9],11.5 ng/mL/mg
same,t1/2,[9],8.66 h
same,Tmax,180 mg single oral dose,0.75 h
same,CL/F,[10],26.5 L/h
same,Cmax,[10],4570 ng/mL
same,DNAUC(0-inf),[10],38.4 ng·h/mL/mg
same,DNCmax,[10],12.7 ng/mL/mg
same,t1/2,[10],8.14 h
same,CL/F,[11],26.3 L/h
same,Cmax,[11],4490 ng/mL
same,DNAUC(0-inf),[11],38.1 ng·h/mL/mg
same,DNCmax,[11],12.5 ng/mL/mg
same,t1/2,[11],8.11 h
same,Tmax,360 mg single oral dose,0.50 h
same,CL/F,[12],22.1 L/h
same,Cmax,[12],9930 ng/mL
same,DNAUC(0-inf),[12],45.7 ng·h/mL/mg
same,DNCmax,[12],13.8 ng/mL/mg
same,t1/2,[12],8.19 h
same,CL/F,[13],22.0 L/h
same,Cmax,[13],9760 ng/mL
same,DNAUC(0-inf),[13],45.5 ng·h/mL/mg
same,DNCmax,[13],13.6 ng/mL/mg
same,t1/2,[13],8.18 h
same,Tmax,720 mg single oral dose,0.75 h
same,CL/F,[14],23.6 L/h
same,Cmax,[14],13100 ng/mL
same,DNAUC(0-inf),[14],43.1 ng·h/mL/mg
same,DNCmax,[14],13.1 ng/mL/mg
same,t1/2,[14],8.83 h
same,CL/F,[15],23.4 L/h
same,Cmax,[15],13000 ng/mL
same,DNAUC(0-inf),[15],42.8 ng·h/mL/mg
same,DNCmax,[15],13.0 ng/mL/mg
same,t1/2,[15],8.58 h
same,Tmax,1000 mg single oral dose,1.00 h
same,AUC(0-t),[16],56.5 ng·h/mL
same,Vd/F,[16],491 L
same,AUC(0-t),[17],55.9 ng·h/mL
same,AUC(0-inf),"both sexes, human, plasma, po, 3 mg, 3 mg single oral dose, Geo Mean, read-out: AUC(0-inf)",94.6 ng·h/mL
same,Vd/F,[17],470 L
same,AUC(0-t),[18],271 ng·h/mL
same,AUC(0-inf),"both sexes, human, plasma, po, 10 mg, 10 mg single oral dose, Ar Mean, read-out: AUC(0-inf)",431 ng·h/mL
same,Vd/F,[18],424 L
same,AUC(0-t),[19],265 ng·h/mL
same,AUC(0-inf),"both sexes, human, plasma, po, 10 mg, 10 mg single oral dose, Geo Mean, read-out: AUC(0-inf)",420 ng·h/mL
same,Vd/F,[19],409 L
same,AUC(0-t),[20],901 ng·h/mL
same,AUC(0-inf),"both sexes, human, plasma, po, 30 mg, 30 mg single oral dose, Ar Mean, read-out: AUC(0-inf)",1260 ng·h/mL
same,Vd/F,[20],349 L
same,AUC(0-t),[21],896 ng·h/mL
same,AUC(0-inf),"both sexes, human, plasma, po, 30 mg, 30 mg single oral dose, Geo Mean, read-out: AUC(0-inf)",1260 ng·h/mL
same,Vd/F,[21],344 L
same,AUC(0-t),[22],2800 ng·h/mL
same,AUC(0-inf),"both sexes, human, plasma, po, 90 mg, 90 mg single oral dose, Ar Mean, read-out: AUC(0-inf)",3730 ng·h/mL
same,Vd/F,[22],365 L
same,AUC(0-t),[23],2790 ng·h/mL
same,AUC(0-inf),"both sexes, human, plasma, po, 90 mg, 90 mg single oral dose, Geo Mean, read-out: AUC(0-inf)",3700 ng·h/mL
same,Vd/F,[23],358 L
same,AUC(0-t),[24],5910 ng·h/mL
same,AUC(0-inf),"both sexes, human, plasma, po, 180 mg, 180 mg single oral dose, Ar Mean, read-out: AUC(0-inf)",7110 ng·h/mL
same,Vd/F,[24],321 L
same,AUC(0-t),[25],5880 ng·h/mL
same,AUC(0-inf),"both sexes, human, plasma, po, 180 mg, 180 mg single oral dose, Geo Mean, read-out: AUC(0-inf)",7090 ng·h/mL
same,Vd/F,[25],317 L
same,AUC(0-t),[26],11900 ng·h/mL
same,AUC(0-inf),"both sexes, human, plasma, po, 360 mg, 360 mg single oral dose, Ar Mean, read-out: AUC(0-inf)",13800 ng·h/mL
same,Vd/F,[26],309 L
same,AUC(0-t),[27],11800 ng·h/mL
same,AUC(0-inf),"both sexes, human, plasma, po, 360 mg, 360 mg single oral dose, Geo Mean, read-out: AUC(0-inf)",13700 ng·h/mL
same,Vd/F,[27],308 L
same,AUC(0-t),[28],29100 ng·h/mL
same,AUC(0-inf),"both sexes, human, plasma, po, 720 mg, 720 mg single oral dose, Ar Mean, read-out: AUC(0-inf)",32900 ng·h/mL
same,Vd/F,[28],260 L
same,AUC(0-t),[29],28900 ng·h/mL
same,AUC(0-inf),"both sexes, human, plasma, po, 720 mg, 720 mg single oral dose, Geo Mean, read-out: AUC(0-inf)",32800 ng·h/mL
same,Vd/F,[29],259 L
same,AUC(0-t),[30],38700 ng·h/mL
same,AUC(0-inf),"both sexes, human, plasma, po, 1000 mg, 1000 mg single oral dose, Ar Mean, read-out: AUC(0-inf)",43100 ng·h/mL
same,Vd/F,[30],299 L
same,AUC(0-t),[31],38500 ng·h/mL
same,AUC(0-inf),"both sexes, human, plasma, po, 1000 mg, 1000 mg single oral dose, Geo Mean, read-out: AUC(0-inf)",42800 ng·h/mL
same,Vd/F,[31],290 L

# From article PMC9387934, “Randomized single oral dose phase 1 study of safety, tolerability, and pharmacokinetics of Iminosugar UV-4 Hydrochloride (UV-4B) in healthy subjects” (PLoS Neglected Tropical Diseases, 2022)
